# Test results from publication PMC8880564, “Design, Synthesis, and Biological Evaluation of a Novel VEGFR-2 Inhibitor Based on a 1,2,5-Oxadiazole-2-Oxide Scaffold with MAPK Signaling Pathway Inhibition” (Pharmaceuticals, 2022).
# Assays:
# Experiment in all cases: NCI-60 one-dose SRB screening
# Assay type in all cases: cell-based
# UACC-62 = conditions: Homo sapiens, UACC-62, Melanoma, 10 µM one dose, 48 h, read-out: growth percentage
# MDA-MB-435 = conditions: Homo sapiens, MDA-MB-435, Melanoma, 10 µM one dose, 48 h, read-out: growth percentage
# SW-620 = conditions: Homo sapiens, SW-620, Colon Cancer, 10 µM one dose, 48 h, read-out: growth percentage
# KM12 = conditions: Homo sapiens, KM12, Colon Cancer, 10 µM one dose, 48 h, read-out: growth percentage
# SR = conditions: Homo sapiens, Leukemia, 10 µM one dose, 48 h, read-out: growth percentage
# DU-145 = conditions: Homo sapiens, DU-145, Prostate Cancer, 10 µM one dose, 48 h, read-out: growth percentage
# OVCAR-8 = conditions: Homo sapiens, OVCAR-8, Ovarian Cancer, 10 µM one dose, 48 h, read-out: growth percentage
# BT-549 = conditions: Homo sapiens, BT-549, Breast Cancer, 10 µM one dose, 48 h, read-out: growth percentage
# MALME-3M = conditions: Homo sapiens, Melanoma, 10 µM one dose, 48 h, read-out: growth percentage
# EKVX = conditions: Homo sapiens, Non-Small Cell Lung Cancer, 10 µM one dose, 48 h, read-out: growth percentage
# SF-268 = conditions: Homo sapiens, SF-268, CNS Cancer, 10 µM one dose, 48 h, read-out: growth percentage
# CCRF-CEM = conditions: Homo sapiens, Leukemia, 10 µM one dose, 48 h, read-out: growth percentage
# UACC-257 = conditions: Homo sapiens, UACC-257, Melanoma, 10 µM one dose, 48 h, read-out: growth percentage
# HS 578T = conditions: Homo sapiens, Breast Cancer, 10 µM one dose, 48 h, read-out: growth percentage
# UO-31 = conditions: Homo sapiens, UO-31, Renal Cancer, 10 µM one dose, 48 h, read-out: growth percentage
# RXF 393 = conditions: Homo sapiens, RXF 393, Renal Cancer, 10 µM one dose, 48 h, read-out: growth percentage
# OVCAR-4 = conditions: Homo sapiens, OVCAR-4, Ovarian Cancer, 10 µM one dose, 48 h, read-out: growth percentage
# NCI-H226 = conditions: Homo sapiens, NCI-H226, Non-Small Cell Lung Cancer, 10 µM one dose, 48 h, read-out: growth percentage
# MDA-MB-468 = conditions: Homo sapiens, MDA-MB-468, Breast Cancer, 10 µM one dose, 48 h, read-out: growth percentage
# SK-MEL-5 = conditions: Homo sapiens, SK-MEL-5, Melanoma, 10 µM one dose, 48 h, read-out: growth percentage
# SK-MEL-2 = conditions: Homo sapiens, SK-MEL-2, Melanoma, 10 µM one dose, 48 h, read-out: growth percentage
# SK-OV-3 = conditions: Homo sapiens, SK-OV-3, Ovarian Cancer, 10 µM one dose, 48 h, read-out: growth percentage
compound,measurement,setting,value
"Cc1nn(-c2ccc(Br)cc2)c2ncnc(Nc3ccc(OCc4c(-c5ccccc5)no[n+]4[O-])cc3)c12 [6g, 3-((4-((1-(4-bromophenyl)-3-methyl-1H-pyrazolo[3,4-d]pyrimidin-4-yl)amino)phenoxy)methyl)-4-phenyl-1,2,5-oxadiazole 2-oxide]",activity at 10 µM,UACC-62,80.3%
same,activity at 10 µM,MDA-MB-435,101%
same,activity at 10 µM,SW-620,107%
same,activity at 10 µM,KM12,98.6%
same,activity at 10 µM,SR,121%
same,activity at 10 µM,DU-145,110%
same,activity at 10 µM,OVCAR-8,93.9%
same,activity at 10 µM,BT-549,104%
same,activity at 10 µM,MALME-3M,91.6%
same,activity at 10 µM,EKVX,83.5%
same,activity at 10 µM,SF-268,104%
same,activity at 10 µM,CCRF-CEM,98.1%
same,activity at 10 µM,UACC-257,97.1%
same,activity at 10 µM,HS 578T,93.4%
same,activity at 10 µM,UO-31,81.5%
same,activity at 10 µM,RXF 393,131%
same,activity at 10 µM,OVCAR-4,95.7%
same,activity at 10 µM,NCI-H226,89.9%
same,activity at 10 µM,MDA-MB-468,97.4%
same,activity at 10 µM,SK-MEL-5,96.5%
same,activity at 10 µM,SK-MEL-2,101%
same,activity at 10 µM,SK-OV-3,96.2%
O=c1[nH]c(CCl)nc2c1cnn2-c1ccccc1 [13a],activity at 10 µM,UACC-62,96.2%
same,activity at 10 µM,MDA-MB-435,95.7%
same,activity at 10 µM,SW-620,102%
same,activity at 10 µM,KM12,101%
same,activity at 10 µM,SR,87.1%
same,activity at 10 µM,DU-145,98.6%
same,activity at 10 µM,OVCAR-8,114%
same,activity at 10 µM,BT-549,94.1%
same,activity at 10 µM,MALME-3M,-38.5%
same,activity at 10 µM,EKVX,100%
same,activity at 10 µM,SF-268,99.9%
same,activity at 10 µM,CCRF-CEM,101%
same,activity at 10 µM,UACC-257,99%
same,activity at 10 µM,HS 578T,111%
same,activity at 10 µM,UO-31,-20.9%
same,activity at 10 µM,RXF 393,94.1%
same,activity at 10 µM,OVCAR-4,100%
same,activity at 10 µM,NCI-H226,110%
same,activity at 10 µM,MDA-MB-468,96.6%
same,activity at 10 µM,SK-MEL-5,107%
same,activity at 10 µM,SK-MEL-2,104%
same,activity at 10 µM,SK-OV-3,106%
